# Assay results: patent US8227621B2, “Cyanine dyes and methods of use” (priority 2005, dated 2012)
# Square brackets hold non-standard residues; d marks the D form. Peptide text beside a SMILES is read from it. NIR Reporter Dye A = not defined here; Sta = CC(C)C[C@H](N)[C@@H](O)CC(=O)O; Compound 6 = not defined here
# What was measured:
# Assay type in all cases: biochemical
# [1] = molecular target: human recombinant β-secretase (BACE-1) (Homo sapiens, UniProt P56817); assay: BACE-1 enzyme inhibition assay; details: 100 nM BACE-1 mixture, 200 nM substrate Structure IV, room temperature 1 hour, Rodbard model
# Chain of human recombinant β-secretase (BACE-1) (Homo sapiens, UniProt P56817) (P56817 46-457 limits assumed): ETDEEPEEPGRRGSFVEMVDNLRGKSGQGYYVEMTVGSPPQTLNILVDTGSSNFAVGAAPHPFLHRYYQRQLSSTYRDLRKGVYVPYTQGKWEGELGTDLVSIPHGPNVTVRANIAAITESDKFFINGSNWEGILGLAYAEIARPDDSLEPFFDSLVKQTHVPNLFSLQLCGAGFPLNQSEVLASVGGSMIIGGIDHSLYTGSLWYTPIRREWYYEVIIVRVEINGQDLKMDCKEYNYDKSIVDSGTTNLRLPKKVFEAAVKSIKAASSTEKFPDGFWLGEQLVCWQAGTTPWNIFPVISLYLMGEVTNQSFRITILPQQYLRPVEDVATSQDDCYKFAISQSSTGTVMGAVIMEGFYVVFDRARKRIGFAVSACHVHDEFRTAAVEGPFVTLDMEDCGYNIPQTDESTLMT
# Description: The BACE-1 assay buffer consists of 50 mM sodium acetate, 10 mM Tris-HCl, 10 mM NaCl, 0.002% Triton X-100, pH adjusted to 4.5. The BACE-1 stop buffer is a 0.8 M sodium phosphate buffer with 0.25 mg/mL BSA (pH 7.8). A characterized BACE-1 inhibitor, β-secretase inhibitor III, is purchased from Calbiochem (CA) (Cat # 565780). […] Two solid-state diode lasers at 680 nm and 780 nm are used as the excitation light sources and their corresponding fluorescence detection is accomplished by two silicon avalanche photodiodes at 710±10 nm and 810±10 nm. […]
# The serially diluted solutions containing the BACE-1 peptide inhibitor (final concentrations from 0 to 2500 nM) were mixed with BACE-1 in BACE-1 assay buffer (total BACE-1 mixture final concentration of 100 nM) for 15 minutes followed by the addition of the BACE-1 protease substrate having Structure IV in a final concentration 200 nM. […] The fluorescence intensity was measured on Aerius® infrared imaging system (FIG. 22A).
# [2] = test system: trypsin; assay: NIR-dye labeled casein protease assay with trypsin; details: 10 μg/mL aprotinin; 20 nM casein conjugate, 5 μg/mL trypsin
# Description: Casein-NIR Reporter Dye B concentration is 20 nM, trypsin concentration is 5 μg/mL, and aprotinin concentration varies from 10 μg/mL, 5 μg/mL, 1.25 μg/mL, 0.31 μg/mL, 78 ng/mL, 19.5 ng/mL, 4.9 ng/mL, to 1.2 ng/mL. Trypsin was pre-incubated with the inhibitors for 1 hour at 37° C.
# Described below is a general method based on the over labeling of casein, with a near-infrared dye, i.e., NIR Reporter Dye B (a NIR-dye labeled casein substrate), for a protease activity microplate assay. The model protease assay uses the labeled casein as the substrate with trypsin as the enzyme, and the fluorescence emission is measured on a LI-COR® Biosciences' Aerius® microplate reader. NIR Reporter Dye B emits at 786 nm, yet it is still a very bright dye (see, FIG. 10).
# The proteolytic reactions are carried out in 96-well plates with 50 mM TRIS buffer pH 7.8. […] (The reagent […] and its protein labeling and purification protocols are from LI-COR® Biosciences. Casein, trypsin, and aprotinin are all purchased from Sigma-Aldrich. Protein molecular weight markers labeled with a 700 nm fluorescence dye are from LI-COR® Biosciences.) The reactants are incubated at 37° C. for one hour and then stopped by adding aprotinin to 10 μg/mL final concentration. Then, after being spun, the plates are read on an the LI-COR® microplate reader Aerius®. […]
# [3] = test system: human recombinant β-secretase (BACE-1); assay: BACE-1 enzyme activity assay; details: 200 nM substrate, 400 nM BACE-1 mixture, 100 minutes
# Description: Purified human recombinant β-secretase (BACE-1) is purchased from Calbiochem (CA). The batch size of 50 μg is supplied as a mixture of the ˜68-70 KDa proenzyme and the ˜65-67 KDa mature enzyme in lyophilized form from sterile-filtered 150 mM NaCl, 50 mM Tris-HCl, pH 7.5. The product is then re-constituted with 100 μL sterile water immediately prior to use.
# The BACE-1 assay buffer consists of 50 mM sodium acetate, 10 mM Tris-HCl, 10 mM NaCl, 0.002% Triton X-100, pH adjusted to 4.5. […] A characterized BACE-1 inhibitor, β-secretase inhibitor III, is purchased from Calbiochem (CA) (Cat # 565780). […] Two solid-state diode lasers at 680 nm and 780 nm are used as the excitation light sources and their corresponding fluorescence detection is accomplished by two silicon avalanche photodiodes at 710±10 nm and 810±10 nm. […]
# The effect of enzyme concentration on proteolytic activity of the β-secretase (β-site amyloid precursor protein cleaving enzyme 1; BACE-1), is shown in FIGS. 20A-C. […] The enzymatic reaction was stopped by addition of BACE-1 stop buffer and the fluorescence was recorded by Aerius® infrared imaging system. […] Based on the fluorescence standard curve obtained (FIG. 20B), the degree of hydrolysis of BACE-1 peptide was determined as 53%. With increased amount of hydrolysis, higher fluorescence increase is expected.
# [4] = molecular target: T1, HIV-1 protease (Human immunodeficiency virus type 1 group M subtype B, UniProt P04585); assay: Effect of DMSO and compound interferences on the HIV-1 protease assay; details: DMSO 0%, 2.5%, 5% and 10%; 2.5-80 nM protease
# T1 construct: Recombinant HIV-1 protease; purchased BACHEM Biosciences
# Description: To measure the tolerance of the HIV-1 protease assay to the presence of dimethyl sulfoxide (DMSO), 1 μM of substrate was incubated with 80 nM, 40 nM, 20 nM, 10 nM, 5 nM and 2.5 nM of HIV-1 protease in an assay buffer containing 10%, 5%, 2.5% or 0% DMSO. After incubation at 37° C. for 1.5 hours, the plate was treated with 0.8 M sodium phosphate stop buffer and then scanned on Aerius® System (LI-COR® Biosciences).
# The robustness of the protease assay was evaluated against fluorescent, color quenching and light scattering interferences, which are the three major sources of compound interferences in high-throughput fluorescent assay screening. In these experiments, protease activity of the HIV-protease assay of the invention was measured in the presence of various amounts of the interference source and compared to that in the absence of the interference.
# Fluorescein, a highly fluorescent compound, was chosen as the model fluorescent compound interference source. A series of fluorescein concentrations were mixed with the HIV-1 peptide substrate in the assay buffer system. These wells were then treated either with the enzyme (positive wells) or without the enzyme (negative wells) and incubated at 37° C. for 1 hour.
# [5] = molecular target: T2, BACE-1 protease enzyme (Homo sapiens, UniProt P56817); assay: Effect of DMSO concentration on BACE-1 enzyme activity; details: vs absence of DMSO
# T2 construct: purchased Calbiochem
# T2 sequence (P56817 46-457 limits assumed): as above
# Description: In this experiment, the BACE-1 protease substrate having Structure IV (200 nM), was incubated with various amounts of BACE-1 protease enzyme (0 to 100 nM) and DMSO concentrations (e.g., 0, 2, 5 or 10%) at room temperature for 1 hour. The enzymatic reactions were then terminated upon the addition of stop buffer and the fluorescence intensities were measured on an Aerius® imaging system. The addition of stop buffer further diluted the DMSO concentrations in the reaction solution from 0, 2, 5, 10% DMSO to 0, 0.5, 1.25, 2.5%, respectively. The change in fluorescence intensity observed for the different DMSO concentrations is a reflection of the interference of DMSO on the BACE-1 enzyme activity. […] DMSO concentration increase to 5% and 10%, the BACE-1 enzyme activity decreased 20% and 35% respectively of the original enzyme activity at the absence of DMSO throughout the enzyme concentration range.
compound,measurement,setting,value
"CC(C)C[C@H](NC(=O)[C@H](CC(N)=O)NC(=O)[C@@H](NC(=O)[C@@H](N)CCC(=O)O)C(C)C)[C@@H](O)CC(=O)N[C@H](C(=O)N[C@@H](C)C(=O)N[C@@H](CCC(=O)O)C(=O)N[C@@H](Cc1ccccc1)C(N)=O)C(C)C [Statine-derived peptide inhibitor, H-Glu-Val-Asn-Statine-Val-Ala-Glu-Phe-NH2] (H-EVN[Sta]VAEF-NH2)",IC50,[1],57 nM
aprotinin,fluorescence intensity change between total trypsin activity suppression and no inhibition,[2],more than 20 fold
Structure IV: β-secretase (BACE-1) protease substrate peptide conjugated to NIR Reporter Dye A and Compound 6 (SEQ ID NO:5) ({NIR Reporter Dye A}-SEVNLDAEFRK(Compound 6)RR-OH; reading uncertain),fluorescence intensity increase over substrate not treated by enzyme,[3]; room temperature,12 fold
same,degree of hydrolysis of BACE-1 peptide,[3]; from fluorescence standard curve,53%
"C[S+](C)[O-] [DMSO, dimethyl sulfoxide]",effect on cleavage of peptide substrate,[4],no significant effect
same,reduction of BACE-1 protease enzyme activity,[5]; DMSO 2%,≤ 10%
same,decrease of BACE-1 enzyme activity,[5]; DMSO 5%,20%
same,decrease of BACE-1 enzyme activity,[5]; DMSO 10%,35%
